# Measurements from publication PMC5573973 (Advanced Synthesis & Catalysis, 2017).
# Experiments:
# Y110F mutant of PcPAL = Y110F mutant of PcPAL (Petroselinum crispum, UniProt P24481, Y110F); assay: Isothermal titration calorimetry with Y110F-PcPAL; assay type: binding; conditions: for Kd: PcPAL_Y110F K d, ITC, pH 8.0, 30 °C
# PAL [1] = conditions: cited from earlier work
# PAL [2] = conditions: cited from earlier work; remark: listed apart in the source
# [3] = molecular target: T1, PAL from Petroselinum crispum (PcPAL) (Petroselinum crispum, UniProt P24481); assay: Steady-state inhibition kinetics of PcPAL-catalyzed deamination of L-Phe; assay type: biochemical
# Pseudomonas putida HAL = conditions: 9 mM, incubation for 120 min in the presence of oxygen; cited from earlier work
# [4] = molecular target: T1, PAL from Petroselinum crispum (PcPAL); conditions: with PcPAL; cited from earlier work
structure (smiles),measurement,setting,value
"N[C@@H](Cc1ccccc1)C(=O)O [(S)‐1, L‐phenylalanine]",Kd,Y110F mutant of PcPAL,23 µM
same,Rate of ammonia elimination relative to D-phenylalanine,PAL [1],more than 4500 times
"N[C@H](Cc1ccccc1)C(=O)O [(R)‐1, D‐phenylalanine]",Kd,Y110F mutant of PcPAL,29.1 µM
same,ΔΔG,"Y110F mutant of PcPAL; ΔΔG=ΔG wt−ΔG Y110F, contribution of the hydroxy group of Tyr110",-0.5 kcal/mol
same,Type of inhibition,PAL [2],competitive inhibitor
"NC(C1(c2ccccc2)CC1)P(=O)(O)O.O (racemic) [(±)‐6, 1-Amino-1-(1-phenylcyclopropyl)methyl-phosphonic acid hydrate]",Ki,[3],> 1000 µM
same,Type of inhibition,[3]; best fitting inhibition model to the experimental data,No inh.
same,Inhibition with PcPAL,[3]; up to 1 mM concentration,no measurable inhibition
N[C@@H](CCS)C(=O)O [L‐homocysteine],Inhibition of HAL,Pseudomonas putida HAL,irreversibly inhibited
"NC1(P(=O)(O)O)Cc2ccccc2C1 [AIP, 2‐aminoindan‐2‐phosphonic acid]",Slow binding behavior,[4],one‐step slow binding mechanism
same,Ki,PAL [2],0.025 µM
"NO[C@@H](Cc1ccccc1)C(=O)O [AOPP, (S)‐2‐aminooxy‐3‐phenylpropanoic acid]",Ki,PAL [2],0.00038 µM
